Key:
Experiment in all cases: relative viability (nuclei count vs DMSO), 5 days (fraction); higher = more cells survive
Neratinib + Alpelisib = compound: CCOc1cc2ncc(C#N)c(Nc3ccc(OCc4ccccn4)c(Cl)c3)c2cc1NC(=O)/C=C/CN(C)C [Neratinib] + Cc1nc(NC(=O)N2CCC[C@H]2C(N)=O)sc1-c1ccnc(C(C)(C)C(F)(F)F)c1 [Alpelisib] (partner 2 µM)
Method in brief: (§1)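 Lung cancer cell lines were pin-tool dosed in 1536-well plates on the day after seeding, with either a lone drug or a fixed anchor-drug dose plus five library-drug doses (not always all listed) in √10 steps. Nuclei were counted on 4× images after 5 days. Relative viability is the ratio of treated-well to vehicle-well nuclei counts, with each value a median of duplicate plates.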

Neratinib + Linsitinib = compound: CCOc1cc2ncc(C#N)c(Nc3ccc(OCc4ccccn4)c(Cl)c3)c2cc1NC(=O)/C=C/CN(C)C [Neratinib] + C[C@]1(O)C[C@@H](c2nc(-c3ccc4ccc(-c5ccccc5)nc4c3)c3c(N)nccn32)C1 [Linsitinib] (partner 1 µM)
Method in brief: as §1

Neratinib + Navitoclax = compound: CCOc1cc2ncc(C#N)c(Nc3ccc(OCc4ccccn4)c(Cl)c3)c2cc1NC(=O)/C=C/CN(C)C [Neratinib] + CC1(C)CCC(c2ccc(Cl)cc2)=C(CN2CCN(c3ccc(C(=O)NS(=O)(=O)c4ccc(N[C@H](CCN5CCOCC5)CSc5ccccc5)c(S(=O)(=O)C(F)(F)F)c4)cc3)CC2)C1 [Navitoclax] (partner 0.5 µM)
Method in brief: as §1

Neratinib + Vorinostat = compound: CCOc1cc2ncc(C#N)c(Nc3ccc(OCc4ccccn4)c(Cl)c3)c2cc1NC(=O)/C=C/CN(C)C [Neratinib] + O=C(CCCCCCC(=O)Nc1ccccc1)NO [Vorinostat] (partner 1 µM)
Method in brief: as §1

| Cell Line | relative viability (Neratinib + Alpelisib; first compound 0.01 µM) | relative viability (Neratinib + Alpelisib; first compound 0.03162 µM) | relative viability (Neratinib + Alpelisib; first compound 0.1 µM) | relative viability (Neratinib + Alpelisib; first compound 0.3162 µM) | relative viability (Neratinib + Alpelisib; first compound 1 µM) | relative viability (Neratinib + Linsitinib; first compound 0.01 µM) | relative viability (Neratinib + Linsitinib; first compound 0.03162 µM) | relative viability (Neratinib + Linsitinib; first compound 0.1 µM) | relative viability (Neratinib + Linsitinib; first compound 0.3162 µM) | relative viability (Neratinib + Linsitinib; first compound 1 µM) | relative viability (Neratinib + Navitoclax; first compound 0.01 µM) | relative viability (Neratinib + Navitoclax; first compound 0.03162 µM) | relative viability (Neratinib + Navitoclax; first compound 0.1 µM) | relative viability (Neratinib + Navitoclax; first compound 0.3162 µM) | relative viability (Neratinib + Navitoclax; first compound 1 µM) | relative viability (Neratinib + Vorinostat; first compound 0.01 µM) | relative viability (Neratinib + Vorinostat; first compound 0.1 µM) | relative viability (Neratinib + Vorinostat; first compound 1 µM) | relative viability (Neratinib + Vorinostat; first compound 0.03162 µM) | relative viability (Neratinib + Vorinostat; first compound 0.3162 µM) |
| --- | --- | --- | --- | --- | --- | --- | --- | --- | --- | --- | --- | --- | --- | --- | --- | --- | --- | --- | --- | --- |
| LOU-NH91 | 0.628 | 0.598 | 0.507 | 0.447 | 0.475 | 0.871 | 0.831 | 0.656 | 0.504 | 0.529 | 0.682 | 0.582 | 0.517 | 0.374 | 0.279 | 0.936 | 0.748 | 0.609 |  |  |
| NCI-H322M | 0.657 | 0.839 | 0.803 | 0.478 | 0.218 | 0.752 | 0.929 | 0.793 | 0.486 | 0.337 | 1.18 | 1.17 | 0.558 | 0.701 | 0.627 | 0.98 | 0.822 | 0.445 | 0.859 | 0.524 |
| SW 1573 | 0.94 |  | 0.591 | 0.577 | 0.515 | 0.742 | 0.89 | 0.778 | 0.782 | 0.642 | 1.32 | 1.15 | 0.862 | 0.87 | 0.804 | 0.797 | 0.612 | 0.38 | 0.831 | 0.623 |
| NCI-H1651 | 1.03 | 1 | 0.823 | 0.783 | 0.616 | 1.13 | 0.925 | 0.911 | 0.747 | 0.786 | 1.2 | 1.17 | 0.878 | 0.84 | 0.742 | 0.605 | 0.505 | 0.513 | 0.582 | 0.508 |
| NCI-H2126 | 0.829 | 0.723 | 0.724 | 0.679 | 0.382 | 0.693 | 0.719 | 0.581 | 0.654 | 0.38 | 0.861 | 0.831 | 0.682 | 0.748 | 0.35 | 0.776 | 0.706 | 0.379 | 0.79 | 0.574 |

— the supplement of paper PMC10307832
